The structures appear in SMILES notation. Activity calls are given as the source filed them. The calls are words filed in the database; no cut-off is given here.

These results are taken from ChEMBL document CHEMBL1157381, “Alkaloids from the Australian rainforest tree Ochrosia moorei” (J Nat Prod, 2008).

What all share (type): cell-based
Data set [1] deals with T1, Glucocorticoid receptor (Homo sapiens) (UniProt P04150).
T1 sequence (whole entry): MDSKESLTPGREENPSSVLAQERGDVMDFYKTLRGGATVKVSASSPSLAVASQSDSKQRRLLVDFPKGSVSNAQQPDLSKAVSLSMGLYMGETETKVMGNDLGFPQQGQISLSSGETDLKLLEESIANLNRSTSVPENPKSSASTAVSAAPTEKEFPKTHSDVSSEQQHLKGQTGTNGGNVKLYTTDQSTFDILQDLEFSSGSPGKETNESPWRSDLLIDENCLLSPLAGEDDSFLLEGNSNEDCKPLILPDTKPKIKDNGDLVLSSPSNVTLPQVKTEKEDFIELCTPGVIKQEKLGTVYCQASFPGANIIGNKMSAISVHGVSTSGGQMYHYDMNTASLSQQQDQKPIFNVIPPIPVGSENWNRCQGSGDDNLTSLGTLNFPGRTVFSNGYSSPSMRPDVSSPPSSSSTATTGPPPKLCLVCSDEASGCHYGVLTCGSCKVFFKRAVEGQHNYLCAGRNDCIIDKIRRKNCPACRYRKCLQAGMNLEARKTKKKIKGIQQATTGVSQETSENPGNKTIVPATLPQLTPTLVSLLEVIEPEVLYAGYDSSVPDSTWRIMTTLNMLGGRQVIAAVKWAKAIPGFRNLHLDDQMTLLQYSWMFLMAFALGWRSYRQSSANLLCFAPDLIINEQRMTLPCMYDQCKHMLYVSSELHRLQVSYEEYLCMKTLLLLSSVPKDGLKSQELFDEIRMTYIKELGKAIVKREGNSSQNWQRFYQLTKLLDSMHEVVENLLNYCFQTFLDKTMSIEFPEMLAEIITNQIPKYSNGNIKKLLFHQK
The data set is described as follows: Inhibition of glucocorticoid receptor-glucocorticoid complex transfected in rat R1 cells assessed as down-regulation of TPA-responsive element proinflammatory gene expression at 100 uM after 24 hrs by beta-galactosidase assay. More on the design: scale not given: the % may be the effect or the level left.

In data set [2] the target is T1, Glucocorticoid receptor (Homo sapiens). The data set is described as follows: Inhibition of glucocorticoid receptor-glucocorticoid complex transfected in rat R1 cells assessed as down-regulation of TPA-responsive element proinflammatory gene expression at 10 uM after 24 hrs by beta-galactosidase assay.
The subject of the next data set is R1. In words: Cytotoxicity against rat R1 cells at 100 uM after 24 hrs by neutral red assay. The conditions noted are these: r1, 24 h.
In a further data set the target is T2, Glucocorticoid receptor (Homo sapiens, UniProt P04150).
T2 sequence (P04150 whole entry): T1 sequence (whole entry)
In words: Inhibition of glucocorticoid receptor-glucocorticoid complex transfected in rat R1 cells assessed as down-regulation of TPA-responsive element proinflammatory gene expression after 24 hrs by beta-galactosidase assay.

As for `C=C1c2[nH]c3ccccc3c2CN2CC[C@H]1/C(=C\C)C2`, in data set [1], the Activity came out at 54%.

As for `CC(=O)C1=CN2CC[C@]34c5ccccc5N(C)[C@H]3C[C@H]1C[C@H]24`, the result in data set [2] was inactive.

For the molecule `COc1ccc2[nH]c3c(C)c4ccncc4c(C)c3c2c1`, the Activity entry in the data set on R1 is given as “Non-toxic”. For the same molecule, the concentration for half-maximal inhibition (IC50) at Glucocorticoid receptor is 90 µM.

As for `Cc1c2ccncc2c(C)c2c1[nH]c1ccccc12` [ELLIPTECINE], the Activity result in the data set with R1 is recorded as “Non-toxic”. For the same molecule, the IC50 at Glucocorticoid receptor amounted to 90 µM.

With `C=C[C@H]1[C@H](O[C@H]2O[C@H](CO)[C@@H](O)[C@H](O)[C@H]2O)OC=C(C(=O)OC)[C@H]1Cc1nc(C(=O)O)cc2c1[nH]c1ccccc12`, the Activity in data set [1] is 30%.

Take `CN1c2ccccc2[C@]23CCN4C=C(C(=O)CO)[C@H](C[C@H]42)C[C@H]13`: the outcome in data set [2] was inactive.
